Patent publication US20210223237A1, “COMPOSITIONS AND METHODS FOR STUDYING DRUG METABOLISM” (Boehringer Ingelheim International GmbH, priority 2020, published 2021)
Where two headings read alike, the source gives them in different places.

How the values were obtained:
[1] = HLM 0.005 mg/ml
in vitro [2] = settings: human, pH 7.4
in vitro [3] = settings: human, microsomes
in vitro [4] = settings: human, microsomes; remark: listed apart in the source
[5] = in vivo; cited from earlier work
[6] = Microsomal binding (fu,mic) using HLM-beads; settings: HLM-beads; HLM 1.0 mg/ml; compound 1.0 μM; (SD)
[7] = Non-specific binding of compounds to magnetizable beads alone; settings: 30 min incubation of beads (5.3×10^9 beads), bioanalysis of supernatant
CYP3A = assay: CYP3A-mediated midazolam 1′hydroxylation kinetics in HLM suspensions vs HLM-beads; set-up: Km, times higher with HLM-beads than with HLM suspensions: unit not given beside the values; settings: for microsomal CLint / Km: human; for microsomal CLint: pH 7.4; for Km: pH 7.4, probe midazolam (1′-hydroxylation)
[8] = human, microsomes, 6 h, 1 μM
[9] = cited from earlier work

Cc1ncc2n1-c1ccc(Cl)cc1C(c1ccccc1F)=NC2 [Midazolam, midazolam]
depletion of parent midazolam ([1]; HLM suspensions, no new HLM added, up to 160 min): No perceptible depletion | metabolism of midazolam on exchange of used HLM-beads with fresh HLM-beads ([1]; HLM-bead relay every 20 minutes): continued metabolism | CLhep predicted at 1 μM (in vitro [2]): 9.47 mL/min/kg | microsomal CLint at 1 μM (in vitro [2]): 842 µL/min/mg | fraction unbound at 5 min, 1 μM (in vitro [3]): 0.76 | fraction unbound at 6 h, 1 μM (in vitro [4]): 0.98 | blood clearance reported in the literature [5]: 8.59 mL/min/kg | fu,mic [6]: 0.53 (0.02) | non-specific binding to the beads [7]: not observed | Vmax (CYP3A; HLM suspensions): 2002 ± 66 pmol/min/mg | Vmax (CYP3A; HLM-beads): 4350 ± 249^sig pmol/min/mg | Km, times higher with HLM-beads than with HLM suspensions (CYP3A; HLM-beads vs HLM suspensions): ~3 × | microsomal CLint (CYP3A; human liver microsomes (suspension)): 2830 µL/min/mg | Km (CYP3A; human liver microsomes bound to beads (HLM-beads)): 2.04 ± 0.23 µM | Km (CYP3A; human liver microsomes in suspension (no beads)): 0.612 ± 0.086 µM | microsomal CLint (CYP3A): 2130 µL/min/mg

CC(=O)CC(c1ccccc1)c1c(O)c2ccccc2oc1=O (stereo not shown) [Warfarin, warfarin]
fu,mic [8]: 0.86 (0.08) | fraction unbound at 6 h, 1 μM (in vitro [4]): 0.94 | pKa [9]: 5.0
